These results are taken from patent US20250164468A1, “Method for Cellular Lifespan Measurement” (AGENCY FOR SCIENCE, TECHNOLOGY AND RESEARCH, priority 2022, published 2025).

What all share (format): cell-based, Saccharomyces cerevisiae
The test system of experiment [1] is prototrophic yeast strain (CEN.PK113-7D). Nature of the experiment: Propidium iodide fluorescence-based chronological lifespan (CLS) method in yeast, incl. high-throughput screening. As to conditions: for Yeast CLS increase / PI intensity: 100 μM tested; for Yeast CLS increase: Yes/No call; for PI intensity: chronological age point day 7 (72 h growth = day 1), lower PI = more survival. Here is the method:
Chronological lifespan (CLS) experiments were conducted in 96-well plates with 200 μL yeast culture. The prototrophic wild-type yeast strain (CEN.PK113-7D) and snf1Δ deletion strains were grown in the SD medium in 96-well plates at 30° C. Saccharomyces cerevisiae BY4743 strain was grown in the SD medium supplemented with histidine (40 mg/L), leucine (160 mg/L), and uracil (40 mg/L) in 96-well plates at 30° C. For assays testing the effect of rapamycin, cellular inoculum was transferred into 96-well plates containing serially double-diluted concentrations (0 to 10 nM) of rapamycin. […] Likewise, cellular inoculum was transferred into the 96-well plates containing serially double-diluted concentrations (0-8 mM) of D-fructose, D-mannitol, D-maltose, and D-sorbitol. Cells were incubated at 30° C., and the growth was measured at different time points. […] Cell survival was quantified at various age time points by three different approaches: (i) propidium iodide fluorescence-based method, (ii) outgrowth in YPD liquid medium and (iii) spotting assay (FIG. 1).
40 μL yeast cells on different age time points were transferred into a 96-well plate different to the 96-well plate in which the CLS analysis was performed. Cells were washed and incubated in 100 μL 1×PBS with PI (5 μg/mL) for 15 minutes in the dark. Positive and negative sample control were included for quantitative analysis. Positive control (cells boiled at 100° C. for 15 min) was PI-stained and processed in the same 96-well plate. Samples without PI-stained cells served as the negative control. After incubation, cells were washed and resuspended in 100 μL PBS. The fluorescence reading of the samples (excitation at 535 nm, emission at 617 nm) and OD600 nm were measured by a microplate reader (BioTek, Winooski, Vermont, United States). The fluorescence intensity of each sample was normalized with OD600 nm. The normalized fluorescence intensity of each sample was subtracted from the background signal of the unstained negative sample. The obtained fluorescence intensity of the positive control sample (boiled dead cells) was considered 0% cell survival. […] Cell survival of different age time point samples were calculated by normalizing the fluorescence intensity with positive control sample (boiled cells).
The prototrophic yeast strain (CEN.PK113-7D) was grown in the synthetic defined medium with indicated concentrations of rapamycin in 96-well plates at 30° C. A total of 30 samples of individual rapamycin concentration was tested with DMSO control (0 nM rapamycin) for Z-factor analysis. […] The chronological lifespan of the aged cells was determined by the outgrowth method in YPD liquid medium. […] At chronological age point day 4, 3 μL culture were transferred to a second 96-well plate containing 200 μL YPD medium. […] The CLS of different concentrations of rapamycin incubated cells was determined using the propidium iodide fluorescence-based method (FIG. 2C). […] Z-factor of different concentrations of rapamycin was analyzed using the formula Z=1−[3×(standard deviation of control sample+standard deviation of rapamycin sample)/(mean of control sample−mean of rapamycin sample)].
High-throughput screening of various chemicals was tested using the same protocol for the propidium iodide fluorescence-based method as described above. The prototrophic yeast strain (CEN.PK113-7D) was grown in the synthetic defined medium with different chemical reagents with a single testing concentration (Table 1) in addition to eight replicates of DMSO and water controls in 96-well plates at 30° C.

The test system is the same in experiment [2]. Nature of the experiment: Yeast outgrowth in YPD liquid medium (CLS of aged cells). The settings on record: 100 μM tested; outgrowth OD600 nm in YPD after 24 h, age point day 14. Here is the method:
This quantification was performed by using the formula,
The CLS of the aged cells was further determined by the yeast outgrowth in YPD liquid medium method as described above. […] At chronological age point day 14, 3-μL of culture were transferred to a second 96-well plate containing 200 μL YPD medium.

Experiment [3] has the same test system. The experiment is described as follows: Yeast cell growth (OD600 nm) with rapamycin in SD medium. Here is the method: Chronological lifespan (CLS) experiments were conducted in 96-well plates with 200 μL yeast culture. The prototrophic wild-type yeast strain (CEN.PK113-7D) and snf1Δ deletion strains were grown in the SD medium in 96-well plates at 30° C. Saccharomyces cerevisiae BY4743 strain was grown in the SD medium supplemented with histidine (40 mg/L), leucine (160 mg/L), and uracil (40 mg/L) in 96-well plates at 30° C. For assays testing the effect of rapamycin, cellular inoculum was transferred into 96-well plates containing serially double-diluted concentrations (0 to 10 nM) of rapamycin. For calorie restriction assay, cellular inoculums were prepared in SD medium containing 2% w/v, 0.5% w/v, and 0.25% w/v glucose and transferred to 96-well plates. […] Cells were incubated at 30° C., and the growth was measured at different time points. […] Cell survival was quantified at various age time points by three different approaches: (i) propidium iodide fluorescence-based method, (ii) outgrowth in YPD liquid medium and (iii) spotting assay (FIG. 1).
The effect of rapamycin on the CLS of a yeast strain was studied to examine the validity of the inventive protocol. […] Cells were aged with different concentrations of rapamycin in the SD medium and their respective growth at different time points (24 hours, 48 hours and 72 hours) were measured. […]

On to `O=C(Oc1nc2[nH]c(=O)[nH]c(=O)c2[nH]1)c1cccnc1` [Xanthinol Nicotinate], for which, in experiment [1], the “Yeast CLS increase” value is on record as “No”.

As for `O=C(O)[C@@H]1CCCN1` [I-pyrrolidine-2-carboxylic acid], in experiment [1], the “Yeast CLS increase” value is “No” and the PI intensity is 80,551.7. In experiment [2], this compound had an Outgrowth of 0.1.

As for `CO[C@H]1C[C@@H]2CC[C@@H](C)[C@@](O)(O2)C(=O)C(=O)N2CCCC[C@H]2C(=O)O[C@H]([C@H](C)C[C@@H]2CC[C@@H](O)[C@H](OC)C2)CC(=O)[C@H](C)/C=C(\C)[C@@H](O)[C@@H](OC)C(=O)[C@H](C)C[C@H](C)/C=C/C=C/C=C/1C` [Rapamycin], the “survival of aged cells” value in experiment [1] (5 nM and 10 nM, day 4 (without rapamycin approx. 50%)) is “approximately 75%”; in experiment [1] (day 7 (without rapamycin less than 20%)), “approximately 70%”. In addition, the “time to cell growth saturation” value is “approximately 24 hours” in experiment [3] (5 nM or less rapamycin) and 48 h in experiment [3] (10 nM rapamycin (slowed cell growth)).

Turning to `OC[C@H]1O[C@H](CO)[C@@H](O)[C@@H]1O` [2,5-anhydromannitol, 2,5-anhydro-D-mannitol], the “extension of CLS of yeasts” value in experiment [1] (screen, PI method) is given as “extend the CLS of yeasts”.

As for Aliskiren (hemiumarate), the PI intensity in experiment [1] is listed as 73,607.3.
